{
  "source": "patent US20230073777A1",
  "about": "“CYCLIC-AMP RESPONSE ELEMENT BINDING PROTEIN (CBP) AND/OR ADENOVIRAL E1A BINDING PROTEIN OF 300 KDA (P300) DEGRADATION COMPOUNDS AND METHODS OF USE” (CULLGEN (SHANGHAI), INC., priority 2019, published 2023)",
  "assay_type_in_all_cases": "cell-based",
  "key": {"RPMI-8226": {"system": "RPMI-8226", "assay": "Cell viability assay, RPMI-8226", "conditions": "Homo sapiens, RPMI-8226, Multiple myeloma", "description": "(§1) Cells were seeded at a density of 5000 cells per well in 96-well assay plates and treated with test compounds following a 12-point 3-fold serial dilution. Three days later, cell viability was determined using the CellTiter-Glo assay kit according to the manufacturer's instructions. The dose-response curves were determined and IC50 values were calculated using the GraphPad Prism software following a nonlinear regression (least squares fit) method.\n(§2) The IC50 value of each compound was determined as described in FIG. 4 and calculated using the GraphPad Prism 5.0 software."}, "MV4; 11": {"system": "MV4; 11", "assay": "Cell viability assay, MV4; 11", "conditions": "Homo sapiens, 11, Acute monocytic leukemia", "description": "as §1, §2"}, "L-363": {"system": "L-363", "assay": "Cell viability assay, L-363", "conditions": "Homo sapiens, L-363, Multiple myeloma", "description": "as §1, §2"}, "LNCaP cells": {"system": "LNCaP cells", "assay": "LNCaP cell viability assay (CellTiter-Glo)", "conditions": "Homo sapiens", "summary_of_the_method": "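LNCaP cells, 5000/well, exposed to compounds in 12-point 3-fold serial dilution (top 10 μM) for 3 days. Viability by CellTiter-Glo luminescence, normalized to untreated cells; IC50 by least-squares nonlinear regression.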"}, "SK-BR-3": {"system": "SK-BR-3", "assay": "Cell viability assay, SK-BR-3", "conditions": "Homo sapiens, SK-BR-3, breast carcinoma", "description": "as §1, §2"}, "Karpas-422": {"system": "Karpas-422", "assay": "Cell viability assay, Karpas-422", "conditions": "Homo sapiens, Karpas-422, Diffuse large B-cell lymphoma", "description": "as §1, §2"}, "LK-2": {"system": "LK-2", "assay": "Cell viability assay, LK-2", "conditions": "Homo sapiens, LK-2, Non-small cell lung cancer", "description": "as §1, §2"}, "HL-60": {"system": "HL-60", "assay": "Cell viability assay, HL-60", "conditions": "Homo sapiens, HL-60, Acute myeloid leukemia", "description": "as §1, §2"}, "NCI-H1703": {"system": "NCI-H1703", "assay": "Cell viability assay, NCI-H1703", "conditions": "Homo sapiens, NCI-H1703, Non-small cell lung cancer", "description": "as §1, §2"}, "NOMO-1": {"system": "NOMO-1", "assay": "Cell viability assay, NOMO-1", "conditions": "Homo sapiens, NOMO-1, Acute monocytic leukemia", "description": "as §1, §2"}, "[1]": {"conditions": "72 h, LNCaP prostate cancer cell viability inhibition, 3 days, CellTiter-Glo (Table 2)"}, "[2]": {"conditions": "cell viability, LNCaP clone FGC, Prostate carcinoma (Table 4)"}},
  "data": [
    {"smiles": "CNC(=O)N1CCc2c(c(N3CCCc4cc(-c5cnn(C)c5)c(C(F)F)cc43)nn2C2CCN(C(=O)CCCCCCCNc3ccc4c(c3)C(=O)N(C3CCC(=O)NC3=O)C4=O)CC2)C1", "note": "(centres unmarked) [P-007, 3-(7-(difluoromethyl)-6-(1-methyl-1H-pyrazol-4-yl)-3,4-dihydroquinolin-1(2H)-yl)-1-(1-(8-((2-(2,6-dioxopiperidin-3-yl)-1,3-dioxoisoindolin-5-yl)amino)octanoyl)piperidin-4-yl)-N-methyl-1,4,6,7-tetrahydro-5H-pyrazolo[4,3-c]pyridine-5-carboxamide]", "values": [
      {"measurement": "IC50", "setting": "RPMI-8226", "value": 3.7, "unit": "nM"},
      {"measurement": "IC50", "setting": "MV4; 11", "value": 8.9, "unit": "nM"},
      {"measurement": "IC50", "setting": "L-363", "value": 3, "unit": "nM"},
      {"measurement": "IC50", "setting": "LNCaP cells; [1]", "value": 1.2, "unit": "nM"},
      {"measurement": "IC50", "setting": "LNCaP cells; [2]", "value": 1.3, "unit": "nM"},
      {"measurement": "IC50", "setting": "SK-BR-3", "value": 5.5, "unit": "nM"},
      {"measurement": "IC50", "setting": "Karpas-422", "value": 6.2, "unit": "nM"},
      {"measurement": "IC50", "setting": "LK-2", "value": 2.6, "unit": "nM"},
      {"measurement": "IC50", "setting": "HL-60", "value": 17, "unit": "nM"}
    ]},
    {"smiles": "CNC(=O)N1CCc2c(c(N3CCCc4cc(-c5cnn(C)c5)c(C(F)F)cc43)nn2C2CCN(C(=O)CCCCCNc3cccc4c3C(=O)N(C3CCC(=O)NC3=O)C4=O)CC2)C1", "note": "(centres unmarked) [P-034, 3-(7-(difluoromethyl)-6-(1-methyl-1H-pyrazol-4-yl)-3,4-dihydroquinolin-1(2H)-yl)-1-(1-(6-((2-(2,6-dioxopiperidin-3-yl)-1,3-dioxoisoindolin-4-yl)amino)hexanoyl)piperidin-4-yl)-N-methyl-1,4,6,7-tetrahydro-5H-pyrazolo[4,3-c]pyridine-5-carboxamide]", "values": [
      {"measurement": "IC50", "setting": "RPMI-8226", "value": 9.4, "unit": "nM"},
      {"measurement": "IC50", "setting": "MV4; 11", "value": "> 10000", "unit": "nM"},
      {"measurement": "IC50", "setting": "L-363", "value": 0.4, "unit": "nM"},
      {"measurement": "IC50", "setting": "NCI-H1703", "value": 2.9, "unit": "nM"},
      {"measurement": "IC50", "setting": "LNCaP cells; [1]", "value": 0.4, "unit": "nM"},
      {"measurement": "IC50", "setting": "LNCaP cells; [2]", "value": 0.6, "unit": "nM"},
      {"measurement": "IC50", "setting": "SK-BR-3", "value": 10.1, "unit": "nM"},
      {"measurement": "IC50", "setting": "Karpas-422", "value": 0.9, "unit": "nM"},
      {"measurement": "IC50", "setting": "NOMO-1", "value": 0.8, "unit": "nM"},
      {"measurement": "IC50", "setting": "LK-2", "value": 7, "unit": "nM"},
      {"measurement": "IC50", "setting": "HL-60", "value": 2.9, "unit": "nM"}
    ]}
  ]
}
